Assay results reported in US8076338B2, “Kinase modulators and methods of use” (Exelixis, Inc., priority 2004, dated 2011).
Like-named read-outs stand apart in the source and are kept apart here.

Key:
AktK = AktK (Homo sapiens, UniProt P31749); experiment: Luciferase-coupled chemiluminescence kinase assay (ATP consumption); assay type: biochemical; conditions: read-out: AKT-1 IC50
Procedure: (§1) One measure of inhibition is Ki. […] The Ki for a compound is determined from the IC50 based on three assumptions. First, only one compound molecule binds to the enzyme and there is no cooperativity. […] Third, the enzymatic rate of the enzyme-inhibitor complex is zero. The rate data (i.e. compound concentration) are fitted to the equation: […]
(§2) Luciferase-Coupled Chemiluminescence Assay Protocol
(§3) Kinase activity is measured as the percent of ATP consumed following the kinase reaction using luciferase-luciferin-coupled chemiluminescence. Reactions were conducted in 384-well white, medium binding microtiter plates (Greiner). Kinase reactions were initiated by combining test compounds, ATP and kinase in a 20 uL volume. The reaction mixture was incubated at ambient temperature for 3 hrs. For p70S6K and/or AktK, 2.5-5 nM of the enzyme was pre-incubated with compound in 20 mM Tris pH 7.5, 10 mM MgCl2, 0.03% TX-100, and 1 mM DTT for 30 minutes at room temperature. Following the kinase reaction, a 20 μL aliquot of luciferase-luciferin mix was added and the chemiluminescence signal measured using a Victor^2 plate reader (Perkin Elmer). The luciferase-luciferin mix contained 50 mM HEPES, pH 7.8, 67 mM oxalic acid (pH 7.8), 5 (or 50) mM DTT, 0.4% Triton X-100, 0.25 mg/mL coenzyme A, 63 μM AMP, 28 μg/1 mL luciferin and 40,000 units/mL luciferase. Total ATP consumption was limited to 25-60% and the IC50 values correlate well with those determined by radiometric assays.

p70S6K = p70S6K (Homo sapiens, UniProt P23443); experiment: as above; assay type: biochemical
Procedure: as §1, §2, §3

Sequence of p70S6K (P23443 whole entry): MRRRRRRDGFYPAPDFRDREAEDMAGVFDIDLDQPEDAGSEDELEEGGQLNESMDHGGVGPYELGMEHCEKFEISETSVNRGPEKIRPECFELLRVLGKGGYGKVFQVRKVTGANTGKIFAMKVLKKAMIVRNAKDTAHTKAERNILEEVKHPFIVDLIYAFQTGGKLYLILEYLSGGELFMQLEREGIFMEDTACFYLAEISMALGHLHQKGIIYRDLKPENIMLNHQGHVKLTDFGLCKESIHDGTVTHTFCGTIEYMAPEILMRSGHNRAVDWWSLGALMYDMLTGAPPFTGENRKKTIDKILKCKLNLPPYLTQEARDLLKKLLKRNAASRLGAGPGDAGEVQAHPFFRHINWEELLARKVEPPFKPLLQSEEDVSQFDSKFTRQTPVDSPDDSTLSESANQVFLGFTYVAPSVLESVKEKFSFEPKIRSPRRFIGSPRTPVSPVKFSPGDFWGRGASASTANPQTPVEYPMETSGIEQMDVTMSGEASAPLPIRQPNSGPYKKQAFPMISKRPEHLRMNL
Sequence of AktK (P31749 whole entry): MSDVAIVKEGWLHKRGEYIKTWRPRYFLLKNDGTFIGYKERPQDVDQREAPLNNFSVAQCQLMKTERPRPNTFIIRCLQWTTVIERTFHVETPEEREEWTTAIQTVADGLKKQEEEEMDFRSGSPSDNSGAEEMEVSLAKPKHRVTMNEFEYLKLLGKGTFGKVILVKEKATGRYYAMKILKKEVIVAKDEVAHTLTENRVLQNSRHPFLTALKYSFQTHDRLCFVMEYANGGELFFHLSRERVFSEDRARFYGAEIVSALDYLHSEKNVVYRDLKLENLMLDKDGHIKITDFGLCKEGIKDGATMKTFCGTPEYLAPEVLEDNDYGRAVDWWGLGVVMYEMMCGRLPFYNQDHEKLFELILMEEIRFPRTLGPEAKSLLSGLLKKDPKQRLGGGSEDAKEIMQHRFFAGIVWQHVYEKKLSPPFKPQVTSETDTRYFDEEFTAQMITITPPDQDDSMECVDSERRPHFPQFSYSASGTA

Question: With `Cc1ccc(Cl)cc1N1CCN(c2ncnc3[nH]ncc23)CC1` [Entry 320, 4-[4-(5-chloro-2-methylphenyl)piperazin-1-yl]-1H-pyrazolo[3,4-d]pyrimidine] as the compound, how does the IC50 (AktK) read?
Answer: Its IC50 is 1 to 10 µM.

Question: And the IC50 (p70S6K)?
Answer: The IC50 was < 0.1 µM.

Question: Which IC50 (AktK) does the source give for `Cc1ccc(Cl)cc1N1CCN(c2ncnc3[nH]nc(C(C)C)c23)CC1` [Entry 351, 4-[4-(5-chloro-2-methylphenyl)piperazin-1-yl]-3-(1-methylethyl)-1H-pyrazolo[3,4-d]pyrimidine] here?
Answer: Its IC50 is 1 to 10 µM.

Question: What about the IC50 (p70S6K) of the same compound?
Answer: Its IC50 is < 0.1 µM.

Question: What does the source list for `CCc1n[nH]c2ncnc(N3CCN(c4cc(Br)cc(N)c4C)CC3)c12` [Entry 165, 5-bromo-3-[4-(3-ethyl-1H-pyrazolo[3,4-d]pyrimidin-4-yl)piperazin-1-yl]-2-methylaniline]?
Answer: IC50 (AktK; Table 1, class symbols per key): 0.1 to 1 µM; IC50 (p70S6K; Table 1, class symbols per key): < 0.1 µM

Question: For `FC(F)(F)c1ccnc(N2CCN(c3ncnc4[nH]nc(Br)c34)CC2)c1` [Entry 117, 3-bromo-4-{4-[4-(trifluoromethyl)pyridin-2-yl]piperazin-1-yl}-1H-pyrazolo[3,4-d]pyrimidine], which IC50 (AktK; Table 1, class symbols per key) is on record?
Answer: The IC50 was ≥ 10 µM.

Question: And the IC50 (p70S6K; Table 1, class symbols per key)?
Answer: Its IC50 is 0.1 to 1 µM.

Question: With `CCc1n[nH]c2ncnc(N3CCN(c4cc(Cl)cc(C(=O)OC)c4OC)CC3)c12` [Entry 368, methyl 5-chloro-3-[4-(3-ethyl-1H-pyrazolo[3,4-d]pyrimidin-4-yl)piperazin-1-yl]-2-(methyloxy)benzoate] as the compound, how does the IC50 (AktK) read?
Answer: Its IC50 is 1 to 10 µM.

Question: And the IC50 (p70S6K)?
Answer: The IC50 was 0.1 to 1 µM.

Question: Which results are given for `Cc1cccc(C)c1N1CCN(c2ncnc3[nH]nc(Br)c23)CC1` [Entry 103, 3-bromo-4-[4-(2,6-dimethylphenyl)piperazin-1-yl]-1H-pyrazolo[3,4-d]pyrimidine]?
Answer: IC50 (AktK; Table 1, class symbols per key): ≥ 10 µM; IC50 (p70S6K; Table 1, class symbols per key): 0.1 to 1 µM

Question: Which results are given for `Brc1cc(NCCN2CCCC2)cc(N2CCN(c3ncnc4[nH]nc(Br)c34)CC2)c1` [Entry 265, 3-bromo-5-[4-(3-bromo-1H-pyrazolo[3,4-d]pyrimi-din-4-yl)piperazin-1-yl]-N-(2-pyrrolidin-1-ylethyl)aniline]?
Answer: IC50 (AktK; Table 1, class symbols per key): < 0.1 µM; IC50 (p70S6K; Table 1, class symbols per key): < 0.1 µM

Question: How did the IC50 (AktK; Table 1, class symbols per key) turn out when `Cc1c(NCCN2CCCC2)cc(C(=O)NC(C)C)cc1N1CCN(c2ncnc3[nH]nc(Br)c23)CC1` [Entry 209, 3-[4-(3-bromo-1H-pyrazolo[3,4-d]pyrimidin-4-yl)piperazin-1-yl]-4-methyl-N-(1-methylethyl)-5-[(2-pyrrolidin-1-ylethyl)amino]benzamide] was run?
Answer: The IC50 was < 0.1 µM.

Question: And the IC50 (p70S6K; Table 1, class symbols per key)?
Answer: The IC50 was < 0.1 µM.

Question: For `Cc1ccc(Cl)cc1N1CCN(c2ncnc3[nH]nc(-c4ccccc4)c23)CC1` [Entry 327, 4-[4-(5-chloro-2-methylphenyl)piperazin-1-yl]-3-phenyl-1H-pyrazolo[3,4-d]pyrimidine], which IC50 (AktK) is on record?
Answer: The IC50 was 1 to 10 µM.

Question: What about the IC50 (p70S6K) of the same compound?
Answer: The IC50 was < 0.1 µM.

Question: Which results are given for `CCc1n[nH]c2ncnc(N3CCN(c4cc(Cl)cc(NCCN(C)CC)c4C)CC3)c12` [Entry 147, N′-{5-chloro-3-[4-(3-ethyl-1H-pyrazolo[3,4-d]pyrimidin-4-yl)piperazin-1-yl]-2-methylphenyl}-N-ethyl-N-methylethane-1,2-diamine]?
Answer: IC50 (AktK; Table 1, class symbols per key): 0.1 to 1 µM; IC50 (p70S6K; Table 1, class symbols per key): < 0.1 µM

Question: Which IC50 (AktK) does the source give for `Clc1ccccc1N1CCN(c2ncnc3[nH]ccc23)CC1` [Entry 311, 4-[4-(2-chlorophenyl)piperazin-1-yl]-7H-pyrrolo[2,3-d]pyrimidine] here?
Answer: The IC50 was ≥ 10 µM.

Question: And the IC50 (p70S6K)?
Answer: The IC50 was 0.1 to 1 µM.

Question: `CCc1n[nH]c2ncnc(N3CCN(c4cc(F)ccc4F)CC3)c12` [Entry 132, 4-[4-(2,5-difluorophenyl)piperazin-1-yl]-3-ethyl-1H-pyrazolo[3,4-d]pyrimidine] was tested. Which IC50 (AktK; Table 1, class symbols per key) did it give?
Answer: The IC50 was ≥ 10 µM.

Question: And the IC50 (p70S6K; Table 1, class symbols per key)?
Answer: Its IC50 is 0.1 to 1 µM.

Question: What does the source list for `CCN1CCN(CCOc2cc(Cl)cc(N3CCN(c4ncnc5[nH]nc(Br)c45)CC3)c2C)CC1` [Entry 74, 3-bromo-4-[4-(5-chloro-3-{[2-(4-ethylpiperazin-1-yl)ethyl]oxy}-2-methylphenyl)piperazin-1-yl]-1H-pyrazolo[3,4-d]pyrimidine]?
Answer: IC50 (AktK; Table 1, class symbols per key): < 0.1 µM; IC50 (p70S6K; Table 1, class symbols per key): < 0.1 µM

Question: Which results are given for `CCc1nc(N2CCN(c3cc(Cl)ccc3C)CC2)c2cn[nH]c2n1` [Entry 325, 4-[4-(5-chloro-2-methylphenyl)piperazin-1-yl]-6-ethyl-1H-pyrazolo[3,4-d]pyrimidine]?
Answer: IC50 (AktK): 1 to 10 µM; IC50 (p70S6K): 1 to 10 µM

Question: Which IC50 (AktK; Table 1, class symbols per key) does the source give for `N#Cc1cccnc1N1CCN(c2ncnc3[nH]nc(Br)c23)CC1` [Entry 127, 2-[4-(3-bromo-1H-pyrazolo[3,4-d]pyrimidin-4-yl)piperazin-1-yl]pyridine-3-carbonitrile] here?
Answer: The IC50 was ≥ 10 µM.

Question: And the IC50 (p70S6K; Table 1, class symbols per key)?
Answer: The IC50 was 0.1 to 1 µM.

Question: `Cc1c(Br)cc(Cl)cc1N1CCN(c2nc(N)nc3[nH]ncc23)CC1` [Entry 159, 4-[4-(3-bromo-5-chloro-2-methylphenyl)piperazin-1-yl]-1H-pyrazolo[3,4-d]pyrimidin-6-amine] was tested. Which IC50 (AktK; Table 1, class symbols per key) did it give?
Answer: The IC50 was ≥ 10 µM.

Question: And the IC50 (p70S6K; Table 1, class symbols per key)?
Answer: The IC50 was 1 to 10 µM.

Question: How did the IC50 (AktK; Table 1, class symbols per key) turn out when `Cc1c(NCCN2CCCC2)cc(C(=O)NOCC2CC2)cc1N1CCN(c2ncnc3[nH]nc(Br)c23)CC1` [Entry 258, 3-[4-(3-bromo-1H-pyrazolo[3,4-d]pyrimidin-4-yl)piperazin-1-yl]-N-[(cyclopropylmethyl)oxy]-4-methyl-5-[(2-pyrrolidin-1-ylethyl)amino]benzamide] was run?
Answer: The IC50 was 0.1 to 1 µM.

Question: What about the IC50 (p70S6K; Table 1, class symbols per key) of the same compound?
Answer: Its IC50 is < 0.1 µM.

Question: For `Cc1ccc(Cl)cc1N1CCN(c2ncnc3[nH]nc(N4CCN(C)CC4)c23)CC1` [Entry 391, 4-[4-(5-chloro-2-methylphenyl)piperazin-1-yl]-3-(4-methylpiperazin-1-yl)-1H-pyrazolo[3,4-d]pyrimidine], which IC50 (AktK) is on record?
Answer: Its IC50 is 1 to 10 µM.

Question: And the IC50 (p70S6K)?
Answer: Its IC50 is 1 to 10 µM.

Question: Which IC50 (AktK; Table 1, class symbols per key) does the source give for `Cc1c(NCCN2CCCC2)cc(F)cc1N1CCN(c2ncnc3[nH]nc(C(F)(F)F)c23)CC1` [Entry 79, 5-fluoro-2-methyl-N-(2-pyrrolidin-1-ylethyl)-3-{4-[3-(trifluoromethyl)-1H-pyrazolo[3,4-d]pyrimidin-4-yl]piperazin-1-yl}aniline] here?
Answer: The IC50 was 0.1 to 1 µM.

Question: What about the IC50 (p70S6K; Table 1, class symbols per key) of the same compound?
Answer: Its IC50 is < 0.1 µM.

Question: Which results are given for `CCCCC(=O)c1cc(NCCN2CCCC2)c(C)c(N2CCN(c3ncnc4[nH]nc(CC)c34)CC2)c1` [Entry 262, 1-{3-[4-(3-ethyl-1H-pyrazolo[3,4-d]pyrimidin-4-yl)piperazin-1-yl]-4-methyl-5-[(2-pyrrolidin-1-ylethyl)amino]phenyl}pentan-1-one]?
Answer: IC50 (AktK; Table 1, class symbols per key): < 0.1 µM; IC50 (p70S6K; Table 1, class symbols per key): < 0.1 µM

Question: `N#Cc1ccccc1N1CCN(c2ncnc3[nH]nc(Br)c23)CC1` [Entry 122, 2-[4-(3-bromo-1H-pyrazolo[3,4-d]pyrimidin-4-yl)piperazin-1-yl]benzonitrile] was tested. Which IC50 (AktK; Table 1, class symbols per key) did it give?
Answer: Its IC50 is ≥ 10 µM.

Question: And the IC50 (p70S6K; Table 1, class symbols per key)?
Answer: The IC50 was 0.1 to 1 µM.

Question: With `Cc1c(NCCN2CCCC2)cc(C(=O)N(C)C(C)C)cc1N1CCN(c2ncnc3[nH]nc(Br)c23)CC1` [Entry 210, 3-[4-(3-bromo-1H-pyrazolo[3,4-d]pyrimidin-4-yl)piperazin-1-yl]-N,4-dimethyl-N-(1-methylethyl)-5-[(2-pyrrolidin-1-ylethyl)amino]benzamide] as the compound, how does the IC50 (AktK; Table 1, class symbols per key) read?
Answer: Its IC50 is 0.1 to 1 µM.

Question: And the IC50 (p70S6K; Table 1, class symbols per key)?
Answer: The IC50 was < 0.1 µM.

Question: What does the source list for `Cc1c(NCCN2CCCC2)cc(C(=O)Nc2ccccc2Cl)cc1N1CCN(c2ncnc3[nH]nc(Br)c23)CC1` [Entry 204, 3-[4-(3-bromo-1H-pyrazolo[3,4-d]pyrimidin-4-yl)piperazin-1-yl]-N-(2-chlorophenyl)-4-methyl-5-[(2-pyrrolidin-1-ylethyl)amino]benzamide]?
Answer: IC50 (AktK; Table 1, class symbols per key): < 0.1 µM; IC50 (p70S6K; Table 1, class symbols per key): < 0.1 µM

Question: `CCc1n[nH]c2ncnc(N3CCN(c4cc(OCC(F)(CF)CF)cc(Br)c4C)CC3)c12` [Entry 251, 4-[4-(3-bromo-5-{[2,3-difluoro-2-(fluorometh-yl)propyl]oxy}-2-methylphenyl)piperazin-1-yl]-3-ethyl-1H-pyrazolo[3,4-d]pyrimidine] was tested. Which IC50 (AktK; Table 1, class symbols per key) did it give?
Answer: Its IC50 is 0.1 to 1 µM.

Question: What about the IC50 (p70S6K; Table 1, class symbols per key) of the same compound?
Answer: The IC50 was < 0.1 µM.
